Test results as given in patent US9434727B2, “Substituted 4-phenylpiperidines, their preparation and use” (THE TRUSTEES OF COLUMBIA UNIVERSITY IN THE CITY OF NEW YORK, priority 2014, dated 2016).
Where a name gives a salt, the structure may show the parent alone. Values belong to the compound of their own block, whether it stands above or below them.

Experiments:
RBP4 [1] = molecular target: T1, RBP4 (Homo sapiens (Human), UniProt P02753); settings: cited from earlier work
serum RBP4 and retinol = serum RBP4 and retinol (Rattus norvegicus (Rat), UniProt P04916); settings: in vivo; cited from earlier work
[2] = system: retinal pigment epithelium cells; settings: many cell types, including the retinal pigment epithelium cells; cited from earlier work
RBP4-TTR interaction [3] = molecular target: T2, RBP4-TTR interaction (Homo sapiens (Human), UniProt P02753); settings: cited from earlier work
mice = settings: cited from earlier work
Abca4−/− mice [4] = settings: cited from earlier work
RBP4 [5] = molecular target: T1, RBP4; assay: Scintillation proximity (SPA) RBP4 binding assay; settings: 10 nM 3H-Retinol, 50 nM biotinylated RBP4
Summary of the method: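 Biotinylated urinary human RBP4 (50 nM) on streptavidin-PVT SPA beads with 10 nM ³H-retinol and test compound, in PBS pH 7.4, 1 mM EDTA, 0.1% BSA, 0.5% CHAPS. Nonspecific binding with 20 μM unlabeled retinol. Equilibrated 6 h at room temperature then overnight at 4° C under dim light.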

RBP4-TTR interaction [6] = molecular target: T2, RBP4-TTR interaction; assay: TR-FRET (HTRF) assay for retinol-induced RBP4-TTR interaction; assay type: biochemical; settings: in the presence of 1 μM retinol; read-out: HTRF assay for antagonists of RBP4-TTR interaction: IC50
Summary of the method: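 Bacterial MBP-RBP4 and Eu³⁺-cryptate-labeled untagged human TTR were incubated with titrated compound in the presence of 1 μM retinol, overnight at +4° C in the dark. Buffer: 10 mM Tris-HCl pH 7.5, 1 mM DTT, 0.05% NP-40, 0.05% Prionex, 6% glycerol, 400 mM KF. Signal is reported as Flu665/Flu620×10,000.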

serum RBP4 = serum RBP4 (Mus musculus (Mouse), UniProt Q00724); assay: Serum RBP4 levels in Abca4−/− mice; assay type: in vivo; settings: 25 mg/kg for 12 weeks, mice starting at 17 weeks old
Procedure: (§1) The effectiveness of the compounds listed in Table 1 are tested in wild-type and Abca4−/− mice. The Abca4−/− mouse model manifests accelerated accumulation of lipofuscin in the RPE and is considered a pre-clinical efficacy model for a drug reducing lipofuscin accumulation. Compounds are orally dosed for 3 weeks at 30 mg/kg. There is a reduction in the serum RBP4 level in treated animals. The levels of A2E/isoA2E and other bisretinoids are reduced in treated mice.
(§2) Abca4−/− mice have A2E levels in the ˜15-19 pmoles/eye range at 17 weeks old. Mice, starting at 17 weeks old, were treated with 25 mg/kg of Compound 81 for 12 weeks.

Abca4−/− mice [7] = assay: Bisretinoid accumulation in eyes of Abca4−/− mice; assay type: in vivo, mouse; settings: 25 mg/kg for 12 weeks, mice starting at 17 weeks old, versus vehicle-treated controls
Procedure: as §1, §2

Compound: CC1=C(/C=C/C(C)=C/C=C/C(C)=C/C(=O)Nc2ccc(O)cc2)C(C)(C)CCC1 [fenretinide, N-(4-hydroxy-phenyl)retinamide]
binding to RBP4 and displacement of all-trans retinol (RBP4 [1]): bind to RBP4, displace all-trans retinol from RBP4 | serum RBP4 and retinol (serum RBP4 and retinol): reduce serum RBP4 and retinol | induction of apoptosis [2]: extremely active inducer of apoptosis | RBP4-TTR interaction (RBP4-TTR interaction [3]): disrupt the RBP4-TTR interaction | formation of hemangiosarcomas (mice): stimulate formation of hemangiosarcomas | A2E production (Abca4−/− mice [4]; Abca4−/− mice): reduced A2E production | ocular all-trans retinol uptake and visual cycle (Abca4−/− mice [4]; mouse, in vivo): inhibit ocular all-trans retinol uptake and slow down the visual cycle

Compound: O=C(c1n[nH]c2c1CNCC2)N1CCC(c2ccc(F)c(F)c2C(F)(F)F)CC1 [Compound 36, (4-(3,4-Difluoro-2-(trifluoromethyl)phenyl)piperidin-1-yl)(4,5,6,7-tetrahydro-1H-pyrazolo[4,3-c]pyridin-3-yl)methanone Trifluoroacetic Acid Salt]
IC50 (RBP4 [5]): 10.9 nM | IC50 (RBP4-TTR interaction [6]): 291 nM | serum RBP4 level (serum RBP4; present-tense paper example): significant serum RBP4 reduction

serum RBP4 level (serum RBP4): significant serum RBP4 reduction
Compound: CC(=O)N1CCc2c(C(=O)N3CCC(c4ccc(F)c(F)c4C(F)(F)F)CC3)n[nH]c2C1 [Compound 81, 1-(3-(4-(3,4-Difluoro-2-(trifluoromethyl)phenyl)piperidine-1-carbonyl)-4,5-dihydro-1H-pyrazolo[3,4-c]pyridin-6(7H)-yl)ethanone]
reduction in bisretinoid content (Abca4−/− mice [7]): 53%

Compound: O=C(c1n[nH]c2c1CCNC2)N1CCC(c2ccc(F)c(F)c2C(F)(F)F)CC1 [Compound 34]
IC50 (RBP4 [5]): 20.7 nM | IC50 (RBP4-TTR interaction [6]): 53.1 nM | serum RBP4 level (serum RBP4; present-tense paper example): significant serum RBP4 reduction

Compound: O=C(c1n[nH]c2c1CCNC2)N1CCC(c2cccc(F)c2Cl)CC1 [Compound 40, (4-(2-Chloro-3-fluorophenyl)piperidin-1-yl)(4,5,6,7-tetrahydro-1Hpyrazolo[3,4-c]pyridin-3-yl)methanone Hydrochloride]
IC50 (RBP4 [5]): 14 nM | IC50 (RBP4-TTR interaction [6]): 84.9 nM | serum RBP4 level (serum RBP4; present-tense paper example): significant serum RBP4 reduction
